Experimental data taken from article PMC5069662, “Transient Induced Molecular Electronic Spectroscopy (TIMES) for study of protein-ligand interactions” (Scientific Reports, 2016).

Biological target: T1, Thermolysin (Bacillus thermoproteolyticus, UniProt P00800)
T1 construct: gene npr
Experiment: TIMES (label-free, immobilization-free microfluidic electronic detection), […] Tris-HCl buffer pH […]
Assay type: binding
Settings: read-out: Measured KD from TIMES

T1 sequence (P00800 233-548): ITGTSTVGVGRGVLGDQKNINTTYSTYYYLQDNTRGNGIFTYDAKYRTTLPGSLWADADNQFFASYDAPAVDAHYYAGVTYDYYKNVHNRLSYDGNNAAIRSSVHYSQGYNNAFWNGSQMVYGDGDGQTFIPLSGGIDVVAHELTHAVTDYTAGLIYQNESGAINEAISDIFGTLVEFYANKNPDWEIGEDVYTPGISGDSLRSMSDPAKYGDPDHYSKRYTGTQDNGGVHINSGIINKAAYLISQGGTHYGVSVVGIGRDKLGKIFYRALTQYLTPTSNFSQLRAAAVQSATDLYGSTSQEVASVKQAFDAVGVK

CC(C)C[C@H](NP(=O)(O)O[C@@H]1O[C@@H](C)[C@H](O)[C@@H](O)[C@H]1O)C(=O)N[C@@H](Cc1c[nH]c2ccccc12)C(=O)O [phosphoramidon]
Kd: 32.1 ± 1.9 nM
